Experimental findings from patent US20260234107A1, “TRYPTAMINES AND METHODS OF TREATING MOOD DISORDERS” (priority 2022, published 2026) are described below.

Series [1] in a line: Plasma pharmacokinetics in mice after subcutaneous administration. It counts as in vivo, male C57BL/6 mice. The conditions noted are these: SC 10 mg/kg. The text has this: Animals. […] Four mice were housed in each cage. […] All animals were provided laboratory rodent diet. […] Animals were randomly assigned to treatment groups.
The test system of series [2] is monoamine oxidase A and B (MAO-A and MAO-B). The series is described as follows: Stability in the presence of monoamine oxidases (human liver mitochondria preparation). The conditions noted are these: for stability in the presence of MAO (in words): human liver mitochondria preparation; for CLint(MAO) / t1/2: human liver mitochondria 0.30 mg protein/mL, 37° C. Details: half-life / microsomal CLint: dose or concentration left out as unconfirmed. As to the method: Liver Mitochondria Incubations. Human liver mitochondria (Xenotech H0610.M) were used.

Series [3] addresses T1, 5-HT2A (Homo sapiens, UniProt P28223). The series can be described thus: 5-HT2A receptor radioligand binding ([3H]ketanserin). As to the method: The binding affinities of disclosed compounds at the ketanserin binding site of the 5-HT2A receptor were determined in radioligand binding experiments.
Method. Affinity of the test compounds for the 5-HT2A receptor was determined in radioligand binding experiments with [^3H]ketanserin by WuXi AppTec (Hong Kong) Limited, using methods adapted from the literature and under conditions described in Table 4.

The target of a further series is T2, 5-HT2B (Homo sapiens, UniProt P41595).
T2 construct: host or cells: HEK293
The series can be described thus: FLIPR Ca2+ flux agonist assay at 5-HT2B. In kind it is cell-based. Particulars: Ca2+ flux; for 5-HT2B % Act @ Max Dose: HEK293, max dose. The method, then:
(§1) A solution of 250 mM probenecid in 1 mL FLIPR assay buffer was prepared fresh. This was combined with a fluorescent dye (Fluo-4 Direct™) to make a final assay concentration of 2.5 mM. […] The fluorescent dye was then added to the assay plate along with assay buffer to a final volume of 40 μL. The cell plate was incubated for 50 min at 37° C. and 5% CO2 and placed into the FLIPR Tetra along with the compound plate. 10 μL of references and compounds were then transferred from the compound plate into the cell plate and the fluorescent signal was read.
A general note: Calcium flux is commonly read through the fluorescence of an indicator in the cells.

Another series concerns the target T3, 5-HT1A (Homo sapiens, UniProt P08908).
T3 construct: host or cells: CHO cells
T3 sequence (P08908 1-422): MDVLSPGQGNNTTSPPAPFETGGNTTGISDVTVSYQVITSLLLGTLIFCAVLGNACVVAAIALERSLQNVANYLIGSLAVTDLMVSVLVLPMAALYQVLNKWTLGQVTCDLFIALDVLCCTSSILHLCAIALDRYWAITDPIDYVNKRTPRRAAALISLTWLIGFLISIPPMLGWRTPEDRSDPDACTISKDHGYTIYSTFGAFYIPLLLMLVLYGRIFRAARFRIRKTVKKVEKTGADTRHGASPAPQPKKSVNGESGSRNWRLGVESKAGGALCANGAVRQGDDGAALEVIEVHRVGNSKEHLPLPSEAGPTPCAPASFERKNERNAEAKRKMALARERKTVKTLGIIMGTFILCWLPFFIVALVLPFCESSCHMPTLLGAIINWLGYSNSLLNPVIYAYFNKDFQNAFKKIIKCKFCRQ
The series is described as follows: FLIPR Ca2+ flux agonist assay at 5-HT1A. In kind it is cell-based.

A short description of series [4]: Stability in mouse brain homogenate. It counts as in vitro ADME, male CD-1 mice.
Series [5] in a line: Stability in rat brain homogenate. In kind it is in vitro ADME, male Sprague Dawley rats.
A further series has as its system rat synaptosomes. The series is described as follows: Serotonin (5-HT) release from rat synaptosomes. It counts as biochemical, Male Sprague-Dawley rats. The conditions noted are these: for EC50: rat synaptosomes preloaded with [3H]5-HT; for % Release @ Max Dose (10 μM): rat synaptosomes. The method, then: Disclosed compounds were assessed for their ability to release serotonin (5-HT) from […] (Table 9). Potency and efficacy for 5-HT release varied substantially depending on the specific compound. […] However, there was also substantial variability among 4-hydroxy compounds.
Synaptosome 5-HT Release Assay. Synaptosome release assays were conducted according to modifications of previously described procedures (Partilla et al. (2016). Interrogating the Activity of Ligands at Monoamine Transporters in Rat Brain Synaptosomes. In Neurotransmitter Transporters (pp. 41-52). Springer.). Briefly, synaptosomes were prepared from rat brains. Male Sprague-Dawley rats were rendered unconscious with CO2 and their brains were immediately removed. The cerebella were discarded and the whole brains (minus striatum) were placed in ice-cold 0.32 M sucrose (10 mL per brain) and gently homogenized by hand. The homogenate of each brain was centrifuged at 1,000×g at 4° C. for 10 mins and the resulting supernatant was diluted with ice-cold 0.32 M sucrose to a total volume of 10 mL to provide the synaptosome solution. Synaptosomes were then preloaded with 5 nM [^3H]5-HT in the presence of selective uptake inhibitors of DAT (50 nM GBR12935), NET (100 nM nomifensine), and VMAT2 (1 μM reserpine) in Krebs phosphate buffer (KPB). The incubations were allowed to reach equilibrium for 2 h at 25° C. For the release reactions, 425 μL of preloaded synaptosomes were added to test tubes containing 75 μL of test drugs diluted in KPB containing 1 mg/mL BSA. After 10 mins, the release reaction was stopped using a cell harvester by rapid vacuum filtration over GF/B filter paper presoaked in wash buffer (10 mM Tris-HCl, pH 7.4, 150 mM NaCl) and the filters were washed with additional wash buffer. Filters were dried for 1 h at 60° C. and retained radioactivity was quantified using a MicroBeta 2 liquid scintillation counter. The amount of retained radioactivity was inversely proportional to the extent of release.

Series [6] has as its target T1, 5-HT2A. The series can be described thus: FLIPR Ca2+ flux agonist assay at 5-HT2A. It counts as cell-based. More on the design: host or cells: HEK293. The conditions noted are these: Ca2+ flux, HEK293; read-out: 5-HT2A EC50. As to the method:
as §1

Series [7] in a line: Metabolic stability in human liver microsomes (HLM). More on the design: microsomal CLint / half-life: dose or concentration left out as unconfirmed. (Microsomes from liver hold many membrane-bound enzymes, among them those of drug oxidation.)
For a further series, the target named is T4, 5-HT2C receptor (Homo sapiens, UniProt P28335).
T4 sequence (P28335 33-458): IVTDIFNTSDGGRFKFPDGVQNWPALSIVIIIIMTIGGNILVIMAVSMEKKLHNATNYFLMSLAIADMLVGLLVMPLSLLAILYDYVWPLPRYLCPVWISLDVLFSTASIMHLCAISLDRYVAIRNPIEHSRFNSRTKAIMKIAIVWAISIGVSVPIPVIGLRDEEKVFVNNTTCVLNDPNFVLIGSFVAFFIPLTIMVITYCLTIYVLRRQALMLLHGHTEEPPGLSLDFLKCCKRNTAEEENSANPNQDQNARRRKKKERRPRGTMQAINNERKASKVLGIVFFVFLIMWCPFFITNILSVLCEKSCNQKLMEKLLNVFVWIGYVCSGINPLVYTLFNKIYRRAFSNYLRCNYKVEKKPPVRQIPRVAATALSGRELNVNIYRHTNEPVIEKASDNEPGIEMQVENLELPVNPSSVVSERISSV
The series is described as follows: cell-based. In kind it is cell-based. Particulars: Ca2+ flux.

The mark [8] stands for this setting: mouse, plasma, male C57BL/6 mice.
Where [9] appears, read: human, human liver mitochondria, pH 7.4.
Where [10] appears, read: mouse brain homogenate, 1 μM, 37° C.
Setting [11] is: rat brain homogenate, 1 μM, 37° C.
Setting [12] is: both, human, pooled human liver microsomes, pH 7.4.
[13] abbreviates: HLM 0.50 mg protein/mL, NADPH, 37° C., 60 minutes.

Where two headings read alike, the source gives them in different places.

T2 sequence (P41595 whole entry, species assumed): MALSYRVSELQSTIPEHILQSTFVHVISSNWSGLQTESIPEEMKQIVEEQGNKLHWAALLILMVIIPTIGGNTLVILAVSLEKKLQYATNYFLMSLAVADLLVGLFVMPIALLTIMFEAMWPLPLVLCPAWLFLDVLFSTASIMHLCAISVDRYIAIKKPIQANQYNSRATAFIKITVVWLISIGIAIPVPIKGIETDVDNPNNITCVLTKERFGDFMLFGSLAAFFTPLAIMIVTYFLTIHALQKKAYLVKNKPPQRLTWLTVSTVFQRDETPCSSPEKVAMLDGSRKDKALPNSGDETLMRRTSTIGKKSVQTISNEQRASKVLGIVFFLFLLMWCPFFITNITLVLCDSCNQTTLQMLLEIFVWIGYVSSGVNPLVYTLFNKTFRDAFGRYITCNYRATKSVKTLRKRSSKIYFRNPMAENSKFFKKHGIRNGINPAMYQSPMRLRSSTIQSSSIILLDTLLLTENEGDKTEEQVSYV
T1 sequence (P28223 whole entry): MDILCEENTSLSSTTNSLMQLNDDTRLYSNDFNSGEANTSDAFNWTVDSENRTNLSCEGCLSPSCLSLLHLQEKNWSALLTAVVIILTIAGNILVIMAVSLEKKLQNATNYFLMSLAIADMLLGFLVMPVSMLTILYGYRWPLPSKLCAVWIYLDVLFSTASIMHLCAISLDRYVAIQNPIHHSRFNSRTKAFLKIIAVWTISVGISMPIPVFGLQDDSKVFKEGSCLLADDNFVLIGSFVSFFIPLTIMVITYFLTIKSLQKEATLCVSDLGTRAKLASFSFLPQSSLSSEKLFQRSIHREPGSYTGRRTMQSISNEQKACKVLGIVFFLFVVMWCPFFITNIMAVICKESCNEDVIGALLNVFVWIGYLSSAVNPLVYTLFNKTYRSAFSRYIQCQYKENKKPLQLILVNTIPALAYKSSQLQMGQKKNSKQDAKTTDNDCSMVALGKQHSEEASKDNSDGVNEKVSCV

Take `Oc1cccc2[nH]cc(CCNC3CC3)c12` [Compound 4, 3-(2-(cyclopropylamino)ethyl)-1H-indol-4-ol]: the “peak plasma concentration compared with 5-F-DMT (in words)” value in [1] (mice) is listed as “much higher peak concentrations than 5-F-DMT”. For the same compound, the AUC(0-t) (commonly exposure summed from dosing to a finite time, without extrapolation to infinity) in series [1] (setting [8]) is 665 ng·h/mL. The peak concentration (Cmax) (commonly the maximum level reached in the sampled fluid or tissue) in series [1] (setting [8]) was determined as 1220 ng/mL. In addition, the half-life (usually the time in which the quantity being followed falls by half) in series [1] (setting [8]) is 0.62 h; in [2] (setting [9]), 1.91 h; in series [7] (setting [12]), 1.36 h. In series [1] (mouse, plasma, male C57BL/6 mice, read-out: Tmax), the Tmax – broadly, the time at which the peak concentration occurs – came out at 0.25 h. Besides, the “stability in the presence of MAO (in words)” value (“stability in the presence” below) in series [2] is recorded as “intermediate stability”. Besides, the “Remaining (t = 60 min)” value in series [2] (human liver mitochondria) worked out at 72.7%. In addition, the microsomal CLint (in general, a measure of how fast metabolising enzymes remove a compound, apart from limits set by blood flow) was 20.2 µL/min/mg in [2] (setting [9]) and 17 µL/min/mg in series [7] (setting [12]). Besides, on 5-HT2A [3], the Ki (usually the equilibrium dissociation constant of an inhibitor or competing ligand from its target) was determined as 339 nM. Further, the “agonism at 5-HT2B (in words)” value at 5-HT2B is given as “did not”. Also, the “5-HT2B % Act @ Max Dose” value on 5-HT2B came out at 4.08%. The EC50 (commonly the midpoint of the concentration-response curve) at 5-HT1A amounted to 6560 nM; in the series on rat synaptosomes, 1250 nM; at 5-HT2A [6], 8.7 nM. Moreover, the “5-HT1A % Act @ Max Dose” value at 5-HT1A (Ca2+ flux, CHO cells) was 58.72%. Moreover, in [4], the “stability in mouse brain homogenate (in words)” value is listed as “intermediate stability”. Besides, the half-life at 1 µM in series [4] (male, CD-1, mouse brain homogenate, 1 μM, 37° C.) came to 0.883 h; in series [5] (male, Sprague Dawley, rat brain homogenate, 1 μM, 37° C.), 1.05 h. For the same compound, the “% Compound Remaining (after 120 min)” value in series [4] (setting [10]) was 19.4%; in [5] (setting [11]) it was 25.2%. The “stability in rat brain homogenate (in words)” value in [5] is on record as “intermediate stability”. Also, the “% Release @ Max Dose (10 μM)” value with rat synaptosomes turned out to be 38.87%.
As to `CCN(C)CCc1c[nH]c2cccc(O)c12` [Compound 4-HO-MET, reference compound], in series [1] (setting [8]), the AUC(0-t) turned out to be 1410 ng·h/mL and the Cmax was 1160 ng/mL. Also, in series [1] (plasma, male C57BL/6 mice), the Tmax is given as 0.08 h and the t1/2 was 1.1 h. Further, in series [2], the “CLint(MAO)” value is less than 15.9 µL/min/mg, the t1/2 is more than 2.42 h and the “stability in the presence” value was “stable”. In series [2] (human liver mitochondria), the “Remaining (t = 60 min)” value is recorded as 112.3%. On 5-HT2B, the “5-HT2B % Act @ Max Dose” value came out at 1.1%. For the same compound, at 5-HT2C receptor, a half-maximal effect (EC50) was put at 37.8 nM and the “5-HT2C % Act @ Max Dose” value is recorded as 95.0%. Also, in series [4] (setting [10]), the t1/2 was found to be 0.763 h and the “% Compound Remaining (after 120 min)” value turned out to be 16.7%. Also, in series [5] (setting [11]), the t1/2 was determined as 0.883 h and the “% Compound Remaining (after 120 min)” value came to 20.9%. Moreover, in the series with rat synaptosomes, the EC50 came to 496 nM and the “% Release @ Max Dose (10 μM)” value is 56.9%. In series [7] (setting [13]), the “Clint” value is less than 9.6 µL/min/mg and the “t1/2” value is more than 2.42 h.
On to `CCCN(CC)CCc1c[nH]c2ccccc12` [EPT, N-ethyl-N-propyltryptamine, reference compound], for which the “CLint(MAO)” value in series [2] was less than 15.9 µL/min/mg. For the same compound, the t1/2 in series [2] was more than 2.42 h. For the same compound, the “stability in the presence” value in series [2] is reported as “more stable”. Also, the “Remaining (t = 60 min)” value in series [2] (human liver mitochondria) turned out to be 95.1%. Besides, the “5-HT2B % Act @ Max Dose” value on 5-HT2B was found to be 80.4%. In addition, the EC50 at 5-HT2B (HEK293, ND = not determined due to lack of measurable agonism, read-out: 5-HT2B EC50) was found to be 40.3 nM; at 5-HT2C receptor it was 33.4 nM; on 5-HT1A (Ca2+ flux, CHO cells, ND = not determined due to lack of measurable agonism, read-out: 5-HT1A EC50), 88700 nM; in the series on rat synaptosomes it was 264 nM; at 5-HT2A [6], 30.5 nM. Further, the “5-HT2C % Act @ Max Dose” value at 5-HT2C receptor is given as 90.8%. Further, the “5-HT1A % Act @ Max Dose” value at 5-HT1A (Ca2+ flux, CHO cells) is 75.5%. Besides, the “% Release @ Max Dose (10 μM)” value in the series with rat synaptosomes is recorded as 45.02%.
Regarding `CCN(C)CCc1c[nH]c2ccccc12` [MET, N-methyl-N-ethyltryptamine, reference compound], in series [2], the “CLint(MAO)” value is less than 15.9 µL/min/mg, the t1/2 is more than 2.42 h and the “stability in the presence” value is “more stable”. Besides, in [2] (human liver mitochondria), the “Remaining (t = 60 min)” value amounted to 84.5%. Besides, the Ki on 5-HT2A [3] is 128 nM. Moreover, on 5-HT2B, the “5-HT2B % Act @ Max Dose” value amounted to 11.9%. The same compound yielded an EC50 at 5-HT2C receptor of 28.3 nM. At 5-HT1A, this compound gave an EC50 of 57900 nM. At 5-HT1A (Ca2+ flux, CHO cells), the “5-HT1A % Act @ Max Dose” value is reported as 71.4%. In the series on rat synaptosomes, the response was half-maximal at 183 nM (EC50) and the “% Release @ Max Dose (10 μM)” value turned out to be 71.00%. Also, the EC50 at 5-HT2A [6] was found to be 17.1 nM.
